The source of these data is publication PMC12561453, “Synthesis and Structure–Activity Relationship Study of 2-(amino)quinazolin-4(3H)-one Derivatives as Potential Inhibitors of Methicillin-Resistant Staphylococcus aureus (MRSA)” (Antibiotics, 2025).

Structures are written as SMILES. Values after ≈ are worked out from the molar mass of the structure shown. Where two headings read alike, the source gives them in different places.

By inhibition is commonly meant the change of the read-out against control, counted positive when it falls. Read a low inhibition as little suppression. Broadly, the IC50 is the concentration at which inhibition is half-maximal. The MIC50 is the lowest concentration that inhibits either 50% of growth or 50% of the strains tested, depending on the study. For orientation: AUC means the area under the concentration-time curve, a measure of exposure. The term Vss denotes the apparent volume that relates the amount in the body to the concentration in plasma or blood. The Tmax is the time at which the peak concentration occurs. The clearance is the rate of elimination divided by the concentration. The low end stands for inefficient removal, the high end for efficient removal. The term half-life denotes the time needed for the level to fall by half in the phase considered. A high value points to slow decline.

A short description of data set [1]: Plasma protein binding, rat. It counts as in vitro ADME. Conditions: read-out: PPB rat, plasma protein binding rate (converted). The procedure:
(§1) Table S2. Result of microsomal stability, plasma protein binding rate, and CYP inhibition of 6l and 6y
(§2) Compound MSa PPBrat human rat human 1A2 2C9 2C19 2D6 3A4
(§3) a % of remaining after 30 min. b plasma protein binding rate (%) at 5 μM concentrations. c % of CYP
(§4) inhibition in human liver microsomes at 10 μM concentrations. […]

A further data set concerns the target hERG (Homo sapiens, UniProt Q12809). Briefly: hERG binding assay. The procedure:
(§5) Table S1. Results of hERG binding assay and cytotoxicity of 6l and 6y
(§6) Compound hERGa CytotoxicityVERO HFL-1 L929 NIH 3T3 CHO-K1
(§7) a % inhibition at 10 μM concentrations. b IC50 values in various mammalian cell lines. […]
(In general: hERG is a cardiac potassium channel; its block is linked to QT prolongation.)

The next data set addresses T1, CYP2C9 (Homo sapiens, UniProt P11712).
T1 construct: from tissue; host or cells: human liver microsomes
Briefly: CYP inhibition in human liver microsomes, 2C9. The data set is classed as in vitro ADME. The procedure:
as §1, §2, §3, §4
A general note: Liver microsomes are a subcellular fraction often used to study metabolism.

Data set [2] can be described thus: Cytotoxicity in L929 cells. The data set is classed as cell-based. Conditions: mouse, L929 cells (NCTC clone 929, fibroblast cell line). The procedure:
as §5, §6, §7

A short description of data set [3]: Cytotoxicity in HFL-1 cells. It counts as cell-based. Conditions: human, HFL-1 cells (embryonic lung cell line). The procedure: as §5, §6, §7
A short description of data set [4]: Microsomal stability, human. The data set is classed as in vitro ADME. Conditions: human microsomes. The procedure:
as §1, §2, §3, §4

A further data set deals with S. aureus USA300 JE2. The experiment in a line: Broth microdilution dose-response, S. aureus USA300 JE2 (MRSA). It counts as cell-based, Staphylococcus aureus. To be noted: Staphylococcus aureus, USA300, USA300 JE2, methicillin-resistant; OD600 after 18–24 h; read-out: USA300 MIC50.
Data set [5] in a line: Rat pharmacokinetic study. It counts as in vivo. To be noted: male rats. Here is the method:
Table S3. Rat pharmacokinetic study of 6l and 6y
Parametersa I.V., 2 mg/kg P.O., 10 mg/kg I.V., 5 mg/kg P. O . , 1 0 mg/kg
Cmax ([…]) NA 0.9 NA 0.2
CL (L/h/kg) 0.25 NA 1.8 NA
a All results are mean of experiments using three male rats. b NA: not applicable

The nature of data set [6]: Plasma protein binding, human. The data set is classed as in vitro ADME. To be noted: read-out: PPB human, plasma protein binding rate (converted). Here is the method: as §1, §2, §3, §4
Another data set can be described thus: in vitro. Conditions: Chinese hamster. It counts as cell-based. Here is the method:
as §5, §6, §7

The subject of the next data set is HepG2 cells. Briefly: In vitro cytotoxicity, HepG2 viability (resazurin). To be noted: HepG2 cells, 24 h, resazurin, read-out: HepG2 IC50. The data set is classed as cell-based, human. Here is the method:
The in vitro cytotoxicity of the compounds was evaluated by measuring the viability of HepG2 cells, a human liver cell line, following treatment in a dose–response manner, as previously described. […] The efficacy window was calculated as the ratio of IC50 in HepG2 cells to MIC50 against JE2.
To test cytotoxicity with compounds, the human liver cell line HepG2 (ATCC #HB-8065) was used for the assay. HepG2 was cultured in DMEM with 10% fetal bovine serum (FBS) in a 96-well microplate at 37 °C and 5% CO2. HepG2 cells were seeded at a final density of 5 × 10^4 cells/well, and DMEM-containing diluted compounds were added and incubated on the plates at 37 °C in 5% CO2 for 24 h. After that, resazurin (final concentration, 0.1 mg/mL) was added to each well and incubated on the plates at 37 °C in 5% CO2 for 2 h. To detect the fluorescence at 530 nm excitation and 590 nm emission, an Ensight multimode plate reader was used (Revvity, Waltham, MA, USA).
(The colour change of resazurin is a common sign of viable cells or microbes.)

Data set [7] in a line: Microsomal stability, rat. The data set is classed as in vitro ADME. To be noted: rat microsomes. The procedure:
as §1, §2, §3, §4

The mark [8] stands for this setting: rat, in vivo, iv, I.V., 5 mg/kg.

T1 sequence (P11712 whole entry): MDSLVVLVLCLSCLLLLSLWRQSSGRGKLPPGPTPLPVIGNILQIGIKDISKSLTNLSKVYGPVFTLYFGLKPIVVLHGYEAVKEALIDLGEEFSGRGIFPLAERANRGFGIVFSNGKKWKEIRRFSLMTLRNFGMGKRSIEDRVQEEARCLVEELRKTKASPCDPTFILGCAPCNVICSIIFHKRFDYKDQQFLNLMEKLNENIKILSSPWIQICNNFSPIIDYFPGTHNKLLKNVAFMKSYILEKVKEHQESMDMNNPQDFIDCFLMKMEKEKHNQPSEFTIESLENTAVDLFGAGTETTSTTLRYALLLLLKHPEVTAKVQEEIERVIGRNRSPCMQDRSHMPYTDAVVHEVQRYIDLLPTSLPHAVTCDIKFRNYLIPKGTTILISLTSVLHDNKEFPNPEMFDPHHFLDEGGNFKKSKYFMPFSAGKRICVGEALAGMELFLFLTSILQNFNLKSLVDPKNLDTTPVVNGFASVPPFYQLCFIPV
hERG, sequence (Q12809 whole entry): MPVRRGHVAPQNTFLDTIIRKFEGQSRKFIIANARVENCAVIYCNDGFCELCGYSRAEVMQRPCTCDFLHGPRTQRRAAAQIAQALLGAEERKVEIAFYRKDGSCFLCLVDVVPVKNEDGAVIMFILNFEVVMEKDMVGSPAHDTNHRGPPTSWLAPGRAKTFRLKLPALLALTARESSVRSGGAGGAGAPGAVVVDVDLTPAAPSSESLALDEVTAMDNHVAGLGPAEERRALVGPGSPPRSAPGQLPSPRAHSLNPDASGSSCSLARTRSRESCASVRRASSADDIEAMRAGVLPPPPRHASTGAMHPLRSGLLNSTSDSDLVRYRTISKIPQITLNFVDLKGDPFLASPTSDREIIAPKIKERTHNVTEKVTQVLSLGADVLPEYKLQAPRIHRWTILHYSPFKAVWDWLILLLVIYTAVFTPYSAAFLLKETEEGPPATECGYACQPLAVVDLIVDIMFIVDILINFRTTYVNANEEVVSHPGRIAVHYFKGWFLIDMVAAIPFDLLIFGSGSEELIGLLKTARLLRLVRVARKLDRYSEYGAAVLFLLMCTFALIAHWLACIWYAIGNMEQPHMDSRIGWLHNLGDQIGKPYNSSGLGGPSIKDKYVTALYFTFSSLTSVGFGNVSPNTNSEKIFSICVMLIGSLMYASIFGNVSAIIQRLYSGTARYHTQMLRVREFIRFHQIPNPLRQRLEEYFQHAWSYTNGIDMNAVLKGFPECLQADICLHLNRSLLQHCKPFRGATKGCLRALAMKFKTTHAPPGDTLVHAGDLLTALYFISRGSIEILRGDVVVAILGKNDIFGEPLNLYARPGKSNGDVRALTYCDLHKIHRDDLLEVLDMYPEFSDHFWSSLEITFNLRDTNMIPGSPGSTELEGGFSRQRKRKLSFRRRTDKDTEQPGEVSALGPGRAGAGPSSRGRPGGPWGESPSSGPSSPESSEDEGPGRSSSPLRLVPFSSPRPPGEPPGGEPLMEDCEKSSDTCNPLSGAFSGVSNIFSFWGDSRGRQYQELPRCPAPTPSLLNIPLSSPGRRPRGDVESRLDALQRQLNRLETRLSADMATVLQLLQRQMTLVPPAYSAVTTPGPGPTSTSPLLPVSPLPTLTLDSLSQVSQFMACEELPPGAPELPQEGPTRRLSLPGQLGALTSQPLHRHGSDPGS

On to `O=c1[nH]c(Nc2cc(Cl)cc(Cl)c2)nc2cc(Cl)ccc12` [6l, 7-Chloro-2-((3,5-dichlorophenyl)amino)quinazolin-4(3H)-one], for which the values for the fraction unbound at 5 μM in [1] and in [6] were 0.001 and 0.002, respectively. The values for the inhibition at 10 µM on hERG and against CYP2C9 were 37.8% and 18.2%, respectively. Further, the IC50 stood at 31.4 µM in [2]; 7.5 µM in [3]; 11 µM in the data set “in vitro”; 62.2 µM with HepG2 cells; 62 µM in the data set with HepG2 cells (Homo sapiens, HepG2, 24 h). Besides, the “MS human, % of remaining after 30 min” value in data set [4] was determined as 99.3%. Further, the MIC50 with S. aureus USA300 JE2 amounted to 0.6 µM (≈ 0.204 µg/mL). For the same compound, the AUC in data set [5] (I.V., 2 mg/kg) is 8500 ng·h/mL; in data set [5] (P.O., 10 mg/kg) it was 6600 ng·h/mL. In data set [5] (I.V., 2 mg/kg), this compound registered a CL of 4.17 mL/min/kg. Moreover, the T1/2 in data set [5] (I.V., 2 mg/kg) worked out at 2.2 h; in [5] (P.O., 10 mg/kg) it was 5.7 h. In addition, the Vss in data set [5] (I.V., 2 mg/kg) came out at 1.6 L/kg. For the same compound, the Cmax in data set [5] (P.O., 10 mg/kg) was determined as 0.9. In [5] (P.O., 10 mg/kg), this compound registered a Ft of 15.6%. The Tmax in data set [5] (P.O., 10 mg/kg) was found to be 2.5 h. In addition, the “MS rat, % of remaining after 30 min” value in data set [7] was determined as 104.7%.

As for `O=c1[nH]c(NCc2ccc(F)c(F)c2)nc2cc(Cl)ccc12` [6y, 7-Chloro-2-((3,4-difluorobenzyl)amino)quinazolin-4(3H)-one], the fraction unbound at 5 μM was 0.005 in [1] and 0.002 in data set [6]. For the same compound, the results for the inhibition at 10 µM on hERG and against CYP2C9 were 11.4% and 91%, respectively. Further, the IC50 came to 79 µM in data set [2]; 50.7 µM in data set [3]; 51.6 µM in “in vitro”; 20.2 µM in the data set with HepG2 cells (Homo sapiens, HepG2, 24 h). In data set [4], the “MS human, % of remaining after 30 min” value is 42.9%. In the data set on S. aureus USA300 JE2, the MIC50 was 0.02 µM (≈ 0.00643 µg/mL). In [5] (P.O., 10 mg/kg), this compound registered a Ft of 33.4%. Moreover, in data set [5] (setting [8]), the clearance was 30 mL/min/kg. The half-life in [5] (setting [8]) was 8.5 h; in data set [5] (rat, in vivo, po, P.O., 10 mg/kg) it was 3.6 h. For the same compound, the area under the curve (AUC) in data set [5] (rat, in vivo, iv, I.V., 5 mg/kg, read-out: AUC) came to 2800 ng·h/mL; in data set [5] (rat, in vivo, po, P.O., 10 mg/kg, read-out: AUC), 1900 ng·h/mL. In data set [5] (rat, in vivo, iv, I.V., 5 mg/kg, read-out: Vss), the Vd came to 5.2 L/kg. Besides, in data set [5] (rat, in vivo, po, P.O., 10 mg/kg, read-out: Cmax), the Cmax came out at 200 ng/mL. Also, the Tmax in data set [5] (rat, in vivo, po, P.O., 10 mg/kg, read-out: Tmax) is 5.3 h. For the same compound, the “MS rat, % of remaining after 30 min” value in data set [7] stood at 53.8%.
